Holding throughout (format): cell-based
The subject of one assay is E. coli R+TEM. The assay can be described thus: Serial dilution test in the microtiter system, MIC against E. coli R+TEM (β-lactamase carrier). To be noted: Escherichia coli, read-out: MIC, E. coli R + TEM. The method, then:
(§1) The tests were performed using the serial dilution test in the microtiter system. The effect of the test compounds on bacteriostasis was examined at the following concentrations: 80, 40, 20, 10, 5, 2.5, 1.25, 0.6, 0.3, 0.08 and 0.02 μgm/ml. The nutrient medium consisted of 10 gm of peptone, 8 gm of meat extract oxoid, 3 gm of sodium chloride, and 2 gm of sec. sodium phosphate diluted with distilled water to […] (pH 7.2-7.4). Only in the test against streptococci 1% of glucose was added. The age of the primary cultures was approximately 20 hours. The standardization of the bacteria suspension was effected using a photometer according to the method of Eppendorf (test tube .phi. 14 mm, filter 546 nm), using for comparison a barium sulfate suspension formed by the addition of 3.0 ml of 1% barium chloride solution to 97 ml of 1% sulfuric acid. After the standardization,Streptococcus aronson was further diluted to a concentration of 1:15, and the other bacteria to a concentration of 1:1500, using a sodium chloride solution.
(§2) 16 mgm of the particular test compound were put into a 10 ml measuring flask, and the flask was subsequently filled to the mark with solvent. The further dilution series was standardized with distilled water or the appropriate solvent.
(§3) The cavities of the microtiter plates were filled with 0.2 ml of nutrient medium. 0.01 ml of the appropriate test compound solution was then added, followed by inoculation with 0.01 ml of the standardized bacteria suspension. The bacteria were incubated at 37° C. for 18 to 20 hours. Control tests using only the solvent were carried out simultaneously.
(§4) The measurement was carried out macroscopically to determine the minimum inhibitory concentration (the lowest still bacteriostatically effective concentration).
(§5) The following test organisms were used:
(§6) Staphylococcus aureus SG 511, St. aureus E 88 (β-lactamase carrier), Escherichia coli ATCC 11 775, Pseudomonas aeruginosa Hamburgensis and Pseudomonas aeruginosa Walter, Serratia macrescens ATCC 13 880, Klebsiella pneumoniae ATCC 10 031 and 272, Proteus mirabilis Hamburgensis, Proteus rettgeri Eb. cloaceae ATCC 13047, and E. coli R+TEM (β-lactamase carrier).
(§7) The following tables show the determined minimum inhibitory concentrations (MIC) for a few representative compounds (E=Na) of the present invention, and two known cephalosporins for comparison: […]

The test system of assay [1] is Serratia macrescens ATCC 13 880. Nature of the assay: Serial dilution test in the microtiter system, MIC against Serratia marcescens ATCC 13880. To be noted: read-out: MIC, Serr. marcesc. ATCC 13880. The method, then:
as §1, §2, §3, §4, §5, §6, §7

Assay [2] relates to Pseudomonas aeruginosa Walter. Nature of the assay: Serial dilution test in the microtiter system, MIC against Pseudomonas aeruginosa Walter. The following applies: minimum inhibitory concentration, 37° C., 18 to 20 hours, read-out: MIC, Pseud. aerug. Walter. The method, then:
as §1, §2, §3, §4, §5, §6, §7

The subject of assay [3] is Escherichia coli ATCC 11 775. The assay can be described thus: Serial dilution test in the microtiter system, MIC against E. coli ATCC 11775. The following applies: minimum inhibitory concentration, 37° C., 18 to 20 hours. The method, then: as §1, §2, §3, §4, §5, §6, §7
The test system of assay [4] is Pseudomonas aeruginosa Hamburgensis. Nature of the assay: Serial dilution test in the microtiter system, MIC against Pseudomonas aeruginosa Hamburgensis. The following applies: minimum inhibitory concentration, 37° C., 18 to 20 hours, read-out: MIC, Pseud. aerug. Hbg. The method, then:
as §1, §2, §3, §4, §5, §6, §7

The test system of the next assay is St. aureus E 88. Nature of the assay: Serial dilution test in the microtiter system, MIC against S. aureus E 88 (β-lactamase carrier). The following applies: Staphylococcus aureus, E88, minimum inhibitory concentration, 37° C., 18 to 20 hours. The method, then: as §1, §2, §3, §4, §5, §6, §7
The next assay relates to Proteus rettgeri. The assay can be described thus: Serial dilution test in the microtiter system, MIC against Proteus rettgeri. To be noted: Providencia rettgeri; minimum inhibitory concentration; 37° C., 18 to 20 hours; read-out: MIC, Prot. rettg. The method, then: as §1, §2, §3, §4, §5, §6, §7
The test system of assay [5] is Klebsiella pneumoniae 272. Nature of the assay: Serial dilution test in the microtiter system, MIC against Klebsiella pneumoniae 272. The following applies: minimum inhibitory concentration, 37° C., 18 to 20 hours, read-out: MIC, Klebs. pneum. 272. The method, then:
as §1, §2, §3, §4, §5, §6, §7

Assay [6] concerns Proteus mirabilis Hamburgensis. Nature of the assay: Serial dilution test in the microtiter system, MIC against Proteus mirabilis Hamburgensis. To be noted: minimum inhibitory concentration, 37° C., 18 to 20 hours, read-out: MIC, Prot. Mir. Hbg. The method, then:
as §1, §2, §3, §4, §5, §6, §7

The test system of assay [7] is Staphylococcus aureus SG 511. Nature of the assay: Serial dilution test in the microtiter system, MIC against S. aureus SG 511. To be noted: SG511, minimum inhibitory concentration, 37° C., 18 to 20 hours. The method, then:
as §1, §2, §3, §4, §5, §6, §7

Another assay deals with Eb. cloaceae ATCC 13047. Nature of the assay: Serial dilution test in the microtiter system, MIC against Eb. cloaceae ATCC 13047. To be noted: minimum inhibitory concentration; 37° C., 18 to 20 hours. The method, then: as §1, §2, §3, §4, §5, §6, §7
Assay [8] deals with Klebsiella pneumoniae ATCC 10 031. Nature of the assay: Serial dilution test in the microtiter system, MIC against Klebsiella pneumoniae ATCC 10031. The following applies: minimum inhibitory concentration, 37° C., 18 to 20 hours, read-out: MIC, Klebs. pneum. ATCC 10031. The method, then:
as §1, §2, §3, §4, §5, §6, §7

Each structure is given as a SMILES string. In brackets after ≈: the same amount, converted by molar mass.

Data on six molecules can be found in patent US4316898A, “Cephalosporins” (Boehringer Ingelheim KG, priority 1979, dated 1982).

What is called MIC is the lowest concentration that inhibits growth of the organism. For the molecule `Cc1nnc(SCC2=C(C(=O)O)N3C(=O)[C@@H](NC(=O)Cn4cnnn4)[C@H]3SC2)s1` [Cephazolin, reference compound], the minimum inhibitory concentration (MIC) in the assay on E. coli R+TEM is 4 µg/mL; in assay [1], over 100 µg/mL; in assay [2], over 100 µg/mL; in [3], 4 µg/mL (≈ 8.8 µM); in assay [4] it was over 100 µg/mL; in the assay with St. aureus E 88, 8 µg/mL (≈ 17.6 µM). Also, the MIC with Proteus rettgeri is over 100 µg/mL; in [5], 2 µg/mL (≈ 4.4 µM); in assay [6] it was 4 µg/mL (≈ 8.8 µM); in [7], 0.06 µg/mL (≈ 0.132 µM); in the assay with Eb. cloaceae ATCC 13047, over 100 µg/mL; in [8], 1 µg/mL (≈ 2.2 µM).

In the case of `CC(=O)Nc1nnc(SCC2=C(C(=O)O)N3C(=O)[C@@H](NC(=O)[C@H](NC(=O)Nc4cnc(NC5CCC(O)CC5)nc4O)c4ccc(O)cc4)[C@H]3SC2)s1` (stereo partly drawn) [D], the MIC is 16 µg/mL in the assay on E. coli R+TEM; 4 µg/mL (≈ 5.08 µM) in assay [1]; 8 µg/mL (≈ 10.2 µM) in assay [2]; 1 µg/mL (≈ 1.27 µM) in assay [3]; 8 µg/mL (≈ 10.2 µM) in [4]; 8 µg/mL (≈ 10.2 µM) against St. aureus E 88. Also, the MIC was found to be 8 µg/mL (≈ 10.2 µM) in the assay on Proteus rettgeri; 2 µg/mL (≈ 2.54 µM) in [5]; 1 µg/mL (≈ 1.27 µM) in [6]; 1 µg/mL (≈ 1.27 µM) in assay [7]; 8 µg/mL (≈ 10.2 µM) against Eb. cloaceae ATCC 13047; 2 µg/mL (≈ 2.54 µM) in assay [8].

Turning to `Cn1nnnc1SCC1=C(C(=O)O)N2C(=O)[C@@H](NC(=O)C(NC(=O)Nc3cnc(NC4CCC(O)CC4)nc3O)c3cccs3)[C@H]2SC1` (stereo partly drawn) [F], the MIC with E. coli R+TEM came to 16 µg/mL; in [1] it was 2 µg/mL (≈ 2.79 µM); in assay [2], 16 µg/mL (≈ 22.3 µM); in [3] it was 0.5 µg/mL (≈ 0.697 µM); in [4], 16 µg/mL (≈ 22.3 µM); in the assay on St. aureus E 88, 8 µg/mL (≈ 11.1 µM). The minimum inhibitory concentration (MIC) in the assay with Proteus rettgeri worked out at 2 µg/mL (≈ 2.79 µM); in assay [5], 2 µg/mL (≈ 2.79 µM); in [6], 0.5 µg/mL (≈ 0.697 µM); in assay [7], 1 µg/mL (≈ 1.39 µM); against Eb. cloaceae ATCC 13047, 4 µg/mL (≈ 5.57 µM); in assay [8], 2 µg/mL (≈ 2.79 µM).

For the molecule `Cc1nnc(SCC2=C(C(=O)O)N3C(=O)[C@@H](NC(=O)[C@H](NC(=O)Nc4cnc(NC5CCC(O)CC5)nc4O)c4ccc(O)cc4)[C@H]3SC2)s1` (stereo partly drawn) [G], the MIC stood at 16 µg/mL in the assay with E. coli R+TEM; 2 µg/mL (≈ 2.69 µM) in assay [1]; 16 µg/mL (≈ 21.5 µM) in assay [2]; 0.5 µg/mL (≈ 0.672 µM) in assay [3]; 16 µg/mL (≈ 21.5 µM) in assay [4]; 16 µg/mL (≈ 21.5 µM) in the assay with St. aureus E 88. Besides, the MIC in the assay on Proteus rettgeri was found to be 1 µg/mL (≈ 1.34 µM); in [5], 2 µg/mL (≈ 2.69 µM); in [6], 0.5 µg/mL (≈ 0.672 µM); in assay [7], 1 µg/mL (≈ 1.34 µM); in the assay with Eb. cloaceae ATCC 13047 it was 2 µg/mL (≈ 2.69 µM); in [8] it was 2 µg/mL (≈ 2.69 µM).

`CNS(=O)(=O)c1ccc(Nc2ncc(NC(=O)N[C@@H](C(=O)N[C@@H]3C(=O)N4C(C(=O)O)=C(COC(C)=O)CS[C@H]34)c3ccc(O)cc3)c(O)n2)cc1` [H]: the MIC with E. coli R+TEM was 16 µg/mL; in [1], 0.5 µg/mL (≈ 0.673 µM); in assay [2] it was 4 µg/mL (≈ 5.39 µM); in [3], 0.13 µg/mL (≈ 0.175 µM); in assay [4], 4 µg/mL (≈ 5.39 µM); with St. aureus E 88, 16 µg/mL (≈ 21.5 µM). In addition, the MIC with Proteus rettgeri was 0.5 µg/mL (≈ 0.673 µM); in assay [5], 0.5 µg/mL (≈ 0.673 µM); in assay [6] it was 0.6 µg/mL (≈ 0.808 µM); in assay [7], 1 µg/mL (≈ 1.35 µM); against Eb. cloaceae ATCC 13047, 2 µg/mL (≈ 2.69 µM); in [8] it was 0.5 µg/mL (≈ 0.673 µM).

Regarding `CNc1nnc(SCC2=C(C(=O)O)N3C(=O)[C@@H](NC(=O)[C@H](NC(=O)Nc4cnc(Nc5ccc(S(=O)(=O)NC)cc5)nc4O)c4ccc(O)cc4)[C@H]3SC2)s1` [J], the MIC is 8 µg/mL in the assay with E. coli R+TEM; 0.5 µg/mL (≈ 0.602 µM) in assay [1]; 8 µg/mL (≈ 9.64 µM) in assay [2]; 0.5 µg/mL (≈ 0.602 µM) in assay [3]; 8 µg/mL (≈ 9.64 µM) in assay [4]; 16 µg/mL (≈ 19.3 µM) in the assay with St. aureus E 88. The MIC in the assay with Proteus rettgeri was determined as 1 µg/mL (≈ 1.2 µM); in assay [5] it was 0.25 µg/mL (≈ 0.301 µM); in [6], 0.25 µg/mL (≈ 0.301 µM); in assay [7] it was 1 µg/mL (≈ 1.2 µM); against Eb. cloaceae ATCC 13047, 1 µg/mL (≈ 1.2 µM); in assay [8], 0.5 µg/mL (≈ 0.602 µM).
